Format in all cases: biochemical
The target of experiment [1] is T1, Hna (Sinorhizobium meliloti, UniProt Q92XN4).
T1 construct: gene SMa2245; full length, 845 residues; recombinant E. coli (codon-optimised); N-terminal 6xHis-MBP-TEV tags cleaved with TEV; monomer, ATP-stabilised homodimer
Briefly: malachite green phosphate release assay. Particulars: 20 µM ATP; 10 nM ssDNA; 10 mM MgCl2; pH 7.5; 37 °C.

The target of experiment [2] is T2, Hna (Sinorhizobium meliloti, UniProt Q92XN4, P712A/D713A/E727A).
T2 construct: gene SMa2245; full length, 845 residues; recombinant E. coli (codon-optimised); N-terminal 6xHis-MBP-TEV tags cleaved with TEV; monomer, ATP-stabilised homodimer
Briefly: malachite green phosphate release assay. Particulars: ssDNA present; Mg2+; pH 7.5; 37 °C.

Experiment [3] has as its target T1, Hna. Description: ssDNA cleavage time courses by capillary electrophoresis, […] ATP. To be noted: 10 mM MgCl2; pH 7.5; 37 °C; nuclease read-out, ATP binds helicase domain.

Consider one compound from article PMC13381803, “Phage-encoded factor stimulates DNA degradation by the Hna anti-phage defense system” (Nature Communications, 2026).

T1 sequence (Q92XN4 entry or part of it): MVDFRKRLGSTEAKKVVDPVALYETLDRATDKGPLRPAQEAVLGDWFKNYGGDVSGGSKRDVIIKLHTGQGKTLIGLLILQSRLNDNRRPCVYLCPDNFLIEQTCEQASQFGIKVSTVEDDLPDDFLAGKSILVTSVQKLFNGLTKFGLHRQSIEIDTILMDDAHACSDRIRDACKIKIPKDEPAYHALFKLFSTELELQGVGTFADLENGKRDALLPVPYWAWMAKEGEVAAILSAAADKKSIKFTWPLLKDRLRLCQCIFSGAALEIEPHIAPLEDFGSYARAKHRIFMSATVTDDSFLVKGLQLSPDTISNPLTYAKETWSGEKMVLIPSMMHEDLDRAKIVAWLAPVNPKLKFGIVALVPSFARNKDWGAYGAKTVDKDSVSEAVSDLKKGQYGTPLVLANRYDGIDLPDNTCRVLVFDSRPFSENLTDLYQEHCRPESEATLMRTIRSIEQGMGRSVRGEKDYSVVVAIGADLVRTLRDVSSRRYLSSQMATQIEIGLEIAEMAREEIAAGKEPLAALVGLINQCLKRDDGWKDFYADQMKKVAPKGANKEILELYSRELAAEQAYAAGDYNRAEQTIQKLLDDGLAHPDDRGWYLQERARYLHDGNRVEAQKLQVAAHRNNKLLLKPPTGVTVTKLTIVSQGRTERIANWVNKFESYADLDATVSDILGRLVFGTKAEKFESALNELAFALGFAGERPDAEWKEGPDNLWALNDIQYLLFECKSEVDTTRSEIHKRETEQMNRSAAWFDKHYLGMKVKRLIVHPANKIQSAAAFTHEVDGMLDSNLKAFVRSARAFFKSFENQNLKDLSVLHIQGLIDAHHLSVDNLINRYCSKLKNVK
T2 sequence (Q92XN4 entry or part of it P712A/D713A/E727A): as the sequence (Q92XN4 entry or part of it) above, with P712A, D713A, E727A counted along it

On to `Nc1ncnc2c1ncn2[C@@H]1O[C@H](COP(=O)(O)OP(=O)(O)OP(=O)(O)O)[C@@H](O)[C@H]1O` [ATP], for which the “malachite green phosphate release assay” value at Hna [1] is reported as “Hna possesses minimal innate ATPase activity that is significantly enhanced by the inclusion of ssDNA”. Also, the “ATPase activity (significant increase)” value on Hna [2] is on record as “significant increase in ATP hydrolysis by PDE Hna”. In addition, the “inhibition of ssDNA cleavage” value at Hna [3] was “significant reduction in ssDNA cleavage across all concentrations of ATP tested”.
